Data published in US5208156A, “Esterase purified from serratia marcescens SR41 (FERM BP-No. 487)” (priority 1990, dated 1993).

Molecular target: T1, Serratia marcescens Sr41 (FERM BP-No. 487) esterase, purified esterase of Example 2 (Serratia marcescens, UniProt Q59932)
T1 construct: 62 kDa by SDS-PAGE; N-terminus XIFSYKDLDENA
T1 sequence (Q59932 2-613): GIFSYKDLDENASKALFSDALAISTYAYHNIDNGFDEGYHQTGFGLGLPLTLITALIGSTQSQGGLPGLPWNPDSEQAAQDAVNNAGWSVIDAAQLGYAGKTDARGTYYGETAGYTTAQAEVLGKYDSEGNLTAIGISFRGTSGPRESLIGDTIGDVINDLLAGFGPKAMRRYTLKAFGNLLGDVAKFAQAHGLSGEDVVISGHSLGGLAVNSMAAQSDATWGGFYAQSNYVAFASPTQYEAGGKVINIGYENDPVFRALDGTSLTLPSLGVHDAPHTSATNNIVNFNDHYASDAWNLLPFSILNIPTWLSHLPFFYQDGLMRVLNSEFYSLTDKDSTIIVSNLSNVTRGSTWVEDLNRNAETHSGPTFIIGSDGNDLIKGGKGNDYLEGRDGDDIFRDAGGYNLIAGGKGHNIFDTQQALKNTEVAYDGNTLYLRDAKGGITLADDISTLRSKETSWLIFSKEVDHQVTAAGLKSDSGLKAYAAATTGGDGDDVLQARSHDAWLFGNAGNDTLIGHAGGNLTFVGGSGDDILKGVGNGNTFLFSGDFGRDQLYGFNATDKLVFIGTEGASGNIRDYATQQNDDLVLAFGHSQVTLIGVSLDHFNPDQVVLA
Test: biochemical
Conditions: for Relative activity: 1 mM inhibitor added to enzyme solution, activity with no addition = 100, olive oil substrate, pH 8.0, 37° C.
Experimental: A mixture of 225 ml of 2% polyvinyl alcohol (Poval 117, manufactured by Kurare Co., Ltd.) and 75 ml of olive oil was emulsified by stirring at 14,500 rpm at 5°-10° C. for 10 minutes. 5.0 ml of the olive oil-emulsion thus-obtained and 4.0 ml of 0.25M Tris-HCl buffer (pH 8.0, containing 2.5 mM calcium chloride) were preincubated at 37° C. for 10 minutes. One ml of an enzyme solution was added thereto to initiate enzymatic reaction. After the mixture was incubated at 37° C. for 20 minutes, 20 ml of a mixture of acetone-ethanol (1:1) were added to the reaction mixture to stop the enzymatic reaction. The mixture was titrated with 0.05N sodium hydroxide solution by using phenolphthalein as the indicator. A blank solution was prepared in the same manner as above except that acetone-ethanol (1:1) is added to the substrate solution before addition of the enzyme solution. Said blank solution was titrated in the same manner as above. The amount of enzyme which liberated one μmole of fatty acid per minute was defined as one unit (U).
The effect of metal ions or known enzyme-inhibitors on the purified esterase obtained in Example 2 was investigated as follows: […]

## O=S(=O)(F)Cc1ccccc1 [Phenylmethylsulfonyl fluoride]
20 min
  Relative activity: 100%

## O=C(O)CN(CCN(CC(=O)O)CC(=O)O)CC(=O)O [Ethylenediaminetetraacetic acid]
  Inhibition of esterase activity: completely inhibited
20 min, pH 8, read-out: Relative activity
  activity at 1000 µM: 0%

## O=C(O)c1cc[c]([Hg][Cl])cc1 [p-Chloromercury benzoate]
20 min
  Relative activity: 86%
